Key:
[1] = tested on: hSOD1^G93A transgenic ALS mice; assay: Minocycline treatment of ALS mice: Rotarod onset and mortality; type: in vivo, mouse
Description: We tested the effectiveness of minocycline on a mouse model of ALS and investigated its mechanism of neuroprotection. […] We evaluated the effect of minocycline on one of the ALS mouse models expressing the mutant human SOD1^G93A transgene. Minocycline (10 mg/kg body weight/day) was injected beginning at five weeks of age. Mutant hSOD1^G93A transgenic mice were evaluated weekly on a Rotarod to follow disease progression.
Minocycline administration started at six weeks of age at a slightly higher dose (11 mg/kg body weight/day).
ALS mice (Jackson Laboratories, Bar Harbor, Me.) were injected intraperitoneally daily with saline or minocycline (Sigma, St. Louis, Mo.). Strength and coordination were evaluated weekly by Rotarod (Columbus Instruments, Columbus, Ohio). Disease onset was defined as the first day a mouse could not remain on the Rotarod for 10 min at 15 rpm. Mortality was scored as age of death or age when the mouse was unable to right itself within 30 seconds (Li et al., supra).

[2] = tested on: human patients with ALS; settings: cited from earlier work

Row | Structure (SMILES) | Onset of impaired motor performance (Rotarod), age ([1]; 10 mg/kg body weight/day i.p. from five weeks of age, saline 90.3±2.2 days, P<0.001) [days] | Survival, age ([1]; 10 mg/kg body weight/day i.p. from five weeks of age, saline 125.6±3.4 days, P<0.01) [days] | Mortality, age ([1]; modified protocol: 11 mg/kg body weight/day from six weeks of age, n=8/group, saline 126.3±2.7 days, P<0.05) [days] | side effects [2]
1 | CN(C)c1ccc(O)c2c1C[C@H]1C[C@H]3[C@H](N(C)C)C(O)=C(C(N)=O)C(=O)[C@@]3(O)C(O)=C1C2=O [Minocycline] | 109.0 ± 1.5 | 136.8 ± 1.2 | 139.0 ± 2.1 | 
2 | Nc1nc2ccc(OC(F)(F)F)cc2s1 [riluzole] |  |  |  | causes liver damage

— patent publication US20040072205A1, “Methods for treating neuronal disorders” (priority 2002, published 2004)
